Data published in patent publication US20080311126A1, “Antisense Oligonucleotides Directed to Ribonucleotide Reducatase R2 and Uses Thereof in Combination Therapies for the Treatment of Cancer” (Genesense Technologies, Inc, priority 2004, published 2008).
“Also recorded” adds a separate entry of the source.

How the values were obtained:
[1] = test system: Human Breast Adenocarcinoma; test: Tumour growth assay, human breast adenocarcinoma in mice; format: in vivo
[2] = test system: Human Ovary Adenocarcinoma; test: Tumour growth assay, human ovary adenocarcinoma in Balb/c Nu-Nu mice; format: in vivo
[3] = test system: Human Pancreatic Adenocarcinoma; test: Tumour growth assay, human pancreatic adenocarcinoma in mice; format: in vivo
[4] = test system: MDA-MB-231 human breast cancer cells; test: MDA-MB-231 breast tumour xenograft in CD-1 nude mice; format: in vivo
Method: MDA-MB-231 human breast cancer cells (1×10^7 cells in 100 μl of PBS) were subcutaneously injected into the right flank of 6-7 weeks old female CD-1 nude mice. After the size of tumour reached an approximate volume of 100 mm^3, 5 days post tumour cell injection, SEQ ID NO:1, or the scrambled control oligonucleotide (SEQ ID NO:3) were administered by bolus infusion into the tail vein every other day at 10 mg/kg. Control animals received saline alone for the same period. Antitumour effect of SEQ ID NO:1 was further compared to that of taxol or doxorubicin alone or in combination. Taxol was administered intravenously once a week at a dose of 10 mg/kg for three (FIG. 17A) or four weeks (FIG. 17C). Doxorubicin was administered intravenously once a week at a dose of 5 mg/kg for first three weeks (FIG. 17A) or for two weeks (FIG. 17C). All treatments were stopped at day 33 (FIG. 17A) or at day 26 (FIG. 17C), respectively. A day after the last treatment, tumours were excised from the animals and their weights were measured. […] In FIG. 17C, antitumour activities were estimated by the inhibition of tumour volume, which was measured with calipers. Each point represents mean tumour volume calculated from 10 animals per experimental group.

Burkitt's Lymphoma = test: Survival assay, Burkitt's lymphoma in mice; format: in vivo, human
Method: For the study of the effect of the compositions on leukaemias, the animals are grafted with a particular number of cells, and the anti-tumour activity is determined by the increase in the survival time of the treated mice relative to the controls.

Human Liver Carcinoma = test: Tumour growth assay, human liver carcinoma in CD-1 nude mice; format: in vivo
[5] = test system: A498 human renal carcinoma; test: A498 renal tumour xenograft in SCID mice, SEQ ID NO:1 and interferon alpha; format: in vivo
Method: Cell line: Human renal carcinoma cell line (A498) was grown as monolayer culture in Minimum essential medium (α-MEM) supplemented with 10% fetal bovine serum (FBS), 0.1 mM non-essential amino acid, 1.0 mM sodium pyruvate, 100 U/ml penicillin, 100 μg/ml streptomycin and 0.25 μg/ml amphotericin B and 2 mM L-alanyl-1-glutamine at 37° C. in an atmosphere of 5% CO2 in air. The tumour cells were routinely subcultured twice weekly by trypsin-EDTA treatment. The cells were harvested from subconfluent logarithmically growing culture by treatment with trypsin-EDTA and counted for tumour inoculation.
Tumour Inoculation: An acclimation period of at least 7 days was allowed between animal receipt and commencement of tumour inoculation. When the female SCID mice were 6-7 weeks of age (20-25 g), each mouse was subcutaneously injected with 9×10^6 A498 human renal carcinoma cells in 0.1 ml of PBS at the right flank of the mice to induce tumour growth.
Dose Preparation and Treatment: The dose for SEQ ID NO:1 was formulated using the following procedure. From a concentrated stock solution (usually prepared in ddH2O at a concentration of 50 mg/ml and kept at −80° C.), SEQ ID NO:1 was diluted with saline to achieve a final target concentration of 1 or 2.5 mg/ml on the first day of dosing. Enough SEQ ID NO:1 was diluted so that the compound could be administered by bolus infusion into the tail vein every other day for the duration of the experiment. Recombinant interferon alfa-2b (ntron A™) was employed according to the dose and treatment schedules below. The treatments were started 20 days after the tumour cell inoculation when the tumour size reached an approximate volume of 200 mm^3. Each treatment group contained 10 tumour-bearing mice. Routes of administration are as follows: intravenous (i.v.) and intratumoural (i.t.).
• 1. Saline treated group-1: saline 0.1 ml/mouse/48 hours, i.v., n=10 • 2. Saline treated group-2: saline 0.05 ml/mouse/5 days/week, i.t., n=10 • 3. SEQ ID NO:1 treated group: 1 mg/kg/48 hours in 0.1 ml saline, i.v. n=10 • 4. SEQ ID NO:1 treated group: 2.5 mg/kg/48 hours in 0.1 ml saline, i.v., n=10 • 5. […]
Treatment started from day 20 after inoculation of human renal tumour cells. […]
Endpoints: The effects of SEQ ID NO:1 and Intron A on tumour growth was determined. Tumour sizes were measured every week from day 20 after the tumour cell inoculation in two dimensions using a caliper, and the volume was expressed in mm^3 using the formula: V=0.5 a×b^2, where a and b are the long and short diameters of the tumour, respectively. Mean tumour volumes calculated from each measurement were then plotted in a standard graph to compare the anti-tumour efficacy to that of controls. A day after the last treatment, tumours were excised from the animals and their weights were measured. […]

In the case of “GGCTAAATCGCTCCACCAAG (chemistry not given here) [SEQ ID NO: 1, antisense oligonucleotide that hybridizes to the coding region of human ribonucleotide reductase R2 mRNA]”, the “Inhibition of tumour weight” value ([1]; Day 31 after tumour implantation) is reported as “approximately 80% on Day 31 after”, the “Inhibition of tumour size” value ([1]; Human Breast Adenocarcinoma) is reported as “approximately 80%” and the “Inhibition of tumour size” value ([2]; Balb/c Nu-Nu mice, Days 19 to 25 after tumour implantation) is reported as “approximately 35% in Balb/c Nu-Nu”. For the same sequence, the “Inhibition of tumour weight” value ([2]; Human Ovary Adenocarcinoma) was “of approximately 50%”, the “Inhibition of tumour weight” value ([3]; Human Pancreatic Adenocarcinoma) was “approximately 65%” and the “inhibition of tumour growth” value ([3]; up to 39 days after tumour implantation) was “Complete inhibition of tumour growth”. The “Tumour weight as % of saline control” value ([4]; MDA-MB-231 (breast), Mouse CD-1) was 12.6%, the “antitumour effect (tumour weight, tumour volume)” value ([4]; oligonucleotide 10 mg/kg every other day i.v., taxol 10 mg/kg, doxorubicin 5 mg/kg i.v. once a week) was “delay of tumour growth compared to saline control in all three experiments; also recorded: superior to the inhibitory effects observed with taxol or doxorubicin alone” and the “effect of treatment on survival” value (Burkitt's Lymphoma; first entry) was “Treatment prolonged survival”. The “survival of treated mice” value (Burkitt's Lymphoma; first entry, untreated died by day 23, one treated mouse died at day 69) was “Treated mice survived beyond day 73”, the “effect of treatment on survival” value (Burkitt's Lymphoma; second entry) was “Treatment prolonged survival” and the “survival of all treated mice (end of the experimental period)” value (Burkitt's Lymphoma; second entry, untreated died by day 20) was “the experimental period (140 days)”. For the same sequence, the “Inhibition of tumour weight” value (Human Liver Carcinoma) was “approximately 65%”, the “anti-tumour efficacy (tumour volume, tumour weight)” value ([5]; Example 6, SEQ ID NO:1 1 or 2.5 mg/kg/48 hours i.v., Intron A 10^3 or 10^5 unit 5 days/week i.t.) was “significant anti-tumour efficacy” and the “anti-tumour efficacy (tumour volume, tumour weight)” value ([5]; Example 7, SEQ ID NO:1 2.5 mg/kg/2ds i.v., 10000 units Intron A x5/week for 2 weeks i.t.) was “significant anti-tumour efficacy”.
